Test results published in a compilation of properties of binary mixtures (doi:10.1021/acs.jced.0c00138).

Experiment: xn = mol fraction of the nth substance listed
Settings: 101.3 kPa

CC[n+]1ccn(C)c1.O=S(=O)([N-]S(=O)(=O)C(F)(F)F)C(F)(F)F + CCCOCCO
speed of sound (298.15 K, x1 = 1): 1239.6 m/s | speed of sound (303.15 K, x1 = 1): 1228.7 m/s | speed of sound (308.15 K, x1 = 1): 1218.2 m/s | speed of sound (313.15 K, x1 = 1): 1207.3 m/s | speed of sound (318.15 K, x1 = 1): 1196.8 m/s

CCCOCCO + CC[n+]1ccn(C)c1.O=S(=O)([N-]S(=O)(=O)C(F)(F)F)C(F)(F)F
speed of sound (298.15 K, x2 = 0.0479): 1290.9 m/s | speed of sound (298.15 K, x2 = 0.0964): 1283.5 m/s | speed of sound (298.15 K, x2 = 0.1514): 1278 m/s | speed of sound (298.15 K, x2 = 0.2034): 1273.8 m/s | speed of sound (298.15 K, x2 = 0.2917): 1268 m/s | speed of sound (298.15 K, x2 = 0.3883): 1263.2 m/s | speed of sound (298.15 K, x2 = 0.4926): 1258.1 m/s | speed of sound (298.15 K, x2 = 0.5974): 1252.8 m/s | speed of sound (298.15 K, x2 = 0.6927): 1248 m/s | speed of sound (298.15 K, x2 = 0.8253): 1241.9 m/s | speed of sound (298.15 K, x2 = 0.8945): 1240.7 m/s | speed of sound (298.15 K, x2 = 0.9518): 1239.7 m/s | speed of sound (303.15 K, x2 = 0.0479): 1275.1 m/s | speed of sound (303.15 K, x2 = 0.1514): 1264.2 m/s | speed of sound (303.15 K, x2 = 0.2917): 1255 m/s | speed of sound (303.15 K, x2 = 0.3883): 1250.6 m/s | speed of sound (303.15 K, x2 = 0.5974): 1240.9 m/s | speed of sound (303.15 K, x2 = 0.6927): 1236.4 m/s | speed of sound (303.15 K, x2 = 0.7631): 1232.8 m/s | speed of sound (303.15 K, x2 = 0.8253): 1230.8 m/s | speed of sound (303.15 K, x2 = 0.9518): 1229.2 m/s | speed of sound (308.15 K, x2 = 0.0964): 1253.7 m/s | speed of sound (308.15 K, x2 = 0.1514): 1249.6 m/s | speed of sound (308.15 K, x2 = 0.2034): 1245.7 m/s | speed of sound (308.15 K, x2 = 0.2917): 1241.1 m/s | speed of sound (308.15 K, x2 = 0.3883): 1237 m/s | speed of sound (308.15 K, x2 = 0.4926): 1233.3 m/s | speed of sound (308.15 K, x2 = 0.5974): 1229.2 m/s | speed of sound (308.15 K, x2 = 0.6927): 1225 m/s | speed of sound (308.15 K, x2 = 0.7631): 1222 m/s | speed of sound (308.15 K, x2 = 0.8253): 1220.5 m/s | speed of sound (308.15 K, x2 = 0.8945): 1219.2 m/s | speed of sound (308.15 K, x2 = 0.9518): 1218.8 m/s | speed of sound (313.15 K, x2 = 0.0479): 1243.4 m/s | speed of sound (313.15 K, x2 = 0.0964): 1238.8 m/s | speed of sound (313.15 K, x2 = 0.1514): 1234.5 m/s | speed of sound (313.15 K, x2 = 0.3883): 1223.4 m/s | speed of sound (313.15 K, x2 = 0.4926): 1220.8 m/s | speed of sound (313.15 K, x2 = 0.5974): 1217.1 m/s | speed of sound (313.15 K, x2 = 0.6927): 1214 m/s | speed of sound (313.15 K, x2 = 0.7631): 1211.3 m/s | speed of sound (313.15 K, x2 = 0.8253): 1209.8 m/s | speed of sound (313.15 K, x2 = 0.8945): 1208.4 m/s | speed of sound (313.15 K, x2 = 0.9518): 1207.7 m/s | speed of sound (318.15 K, x2 = 0.0479): 1228.5 m/s | speed of sound (318.15 K, x2 = 0.1514): 1220.2 m/s | speed of sound (318.15 K, x2 = 0.4926): 1208.4 m/s | speed of sound (318.15 K, x2 = 0.5974): 1205.2 m/s | speed of sound (318.15 K, x2 = 0.6927): 1202.8 m/s | speed of sound (318.15 K, x2 = 0.7631): 1200.3 m/s | speed of sound (318.15 K, x2 = 0.8253): 1199.5 m/s | speed of sound (318.15 K, x2 = 0.8945): 1198.4 m/s | speed of sound (318.15 K, x2 = 0.9518): 1198 m/s
